Patent US5084441A, “Acetylated low density lipoproteins: a delivery system to phagocytic cells for stimulating immunologic response and host resistance” (priority 1988, dated 1992)

Key:
[1] = system: thioglycolate-elicited macrophages, thymocytes and X63-Ag8.653 myeloma cells; assay: Cell specificity of [125I]acetyl-LDL binding; design: species or system mouse
Procedure: Thiglycolate-elicited macrophages, thymocytes and X63-Ag8.653 myeloma cells were incubated with [^125 I] acetyl-LDL at 4 degrees centigrade in six cell tissue culture plates at […]. After 2 hours, the cells were washed five times, then lysed in 0.05% Triton X-100 and the amount of [^125 I] acetyl-LDL bound was determined.

[2] = system: macrophages; details: reference 41; cited from earlier work
[3] = system: thioglycolate-elicited macrophages; assay: Fluorescent binding and uptake of acetyl-LDL:MTP-PE-DiI by macrophages; format: cell-based, mouse; details: 30-fold excess of competitor; 30 μg acetyl-LDL:MTP-PE-DiI; 37°
Procedure: The binding and uptake of acetyl-LDL:MTP-PE-DiI was carried out at 37 degrees centigrade and the fluorescence intensity of cell-associated DiI recorded. The μg acetyl-LDL:MTP-PE-DiI bound was determined by knowing the quantity of DiI associated with the complex (1.34±0.76 nmol DiI/mg acetyl-LDL protein). The data points represent an average of three separate experiments.
Insert: Uptake of 30 μg of acetyl-LDL:MTP-PE-DiI and in the presence of a 30-fold excess of acetyl-LDL (a) a 30-fold excess of LDL (b) or a 30-fold excess of liposomes (c).

[4] = system: B16F10 melanoma target cells; assay: Macrophage-mediated cytostasis ([3H]thymidine incorporation) after treating thioglycolate-elicited macrophages; details: for % Cytostasis: effector:target 10:1
Procedure: ^(2) Thioglycolate-elicited macrophages were treated with different
concentrations of the complex for 24 hours, unbound complex was washed
away and B16F10 melanoma cells were added. After 24 hours, the cultures
were pulsed with [3H]thymidine and harvested after 18 hours
(effector:target ratio, 10:1).
Macrophage-mediated Cytostasis: Cytostatic activity was determined using a (^3 H) Thymidine (New England Nuclear Corp) incorporation technique (64). […] After 24 hours, the cells were washed twice with warm DMEM and cultured in DMEM (10% FCS), with 1×10^5 B16F10 melanoma target cells for 24 hours. The cells were then pulsed for 24 hours with 1 uCi of (^3 H) thymidine. Cells were harvested using a MASH cell harvester and assayed with a liquid scintillation counter. The results were expressed as a percent inhibition of (^3 H) thymidine incorporation into the B16F10 target cells (such as % cytostasis). [formula]

[5] = system: P815 mastocytoma target cells; assay: Macrophage-mediated cytotoxicity ([3H]thymidine release) after treating thioglycolate-elicited macrophages
Procedure: Macrophage-mediated cytotoxicity: Cytotoxicity was determined using a [3H] thymidine release assay. Thioglycolate-elicited macrophages were plated in 96-well flat-bottom tissue culture plates (Costar, Cambridge, Mass.) at 4×10^5 and 1×10^4 macrophage per well. […] After 24 hours, the plates were washed three times and [3H] thymidine labelled P815 tumor target cells (1×10^4) were added to each well. The total assay volume was 250 μl in DMEM with 10% FCS and the plates were incubated an additional 24 hours. After incubation, the microplates were centrifuged for 2 minutes at 250×g and a 125 μl aliquot of supernatant was removed and counted by liquid […]. Total incorporation of radioactivity was determined by adding 1×10^4 cells to 2 ml of Beckman Redissolve scintillation cocktail.
The percent specific release was calculated. [formula]
All samples were plated in triplicate and the data presented as the mean ±S.D. of triplicates.

In the case of “Acetyl-LDL: human plasma LDL exhaustively acetylated with acetic anhydride at apoprotein B lysine residues; the carrier alone”, the “binding to myeloma cell line (B-lymphocyte) and thymocytes (T-lymphocytes)” value [1] is given as “only low levels of binding”, the “rate of uptake and degradation by macrophages relative to LDL” value [2] is given as “approximately twenty-fold greater” and the “competition with uptake of DiI-labeled acetyl-LDL:MTP-PE complex” value [3] is given as “effective competitive inhibitor”. For the same substance, the “% Cytostasis” value ([4]; acetyl-LDL 6.25 μg protein/ml (MTP-PE 0.62 μg/ml in complex, 0.0 alone), 24 hours) was at most 5%, the “% Cytostasis (Complex + Excess Liposomes)” value ([4]; acetyl-LDL 6.25 μg protein/ml (MTP-PE 0.62 or 0.0 μg/ml) in presence of excess liposomes 1.2 mg lipid/ml) was at most 5% and the “% Cytostasis” value ([4]; acetyl-LDL 12.5 μg protein/ml (MTP-PE 1.3 μg/ml in complex, 0.0 alone), 24 hours) was under 5%. The “% Cytostasis (Complex + Excess Liposomes)” value ([4]; acetyl-LDL 12.5 μg protein/ml (MTP-PE 1.3 or 0.0 μg/ml) in presence of excess liposomes 1.2 mg lipid/ml) was at most 5%, the “% Cytostasis” value ([4]; acetyl-LDL 25 μg protein/ml (MTP-PE 2.5 μg/ml in complex, 0.0 alone), 24 hours) was 25 ± 12% and the “% Cytostasis (Complex + Excess Liposomes)” value ([4]; acetyl-LDL 25 μg protein/ml (MTP-PE 2.5 or 0.0 μg/ml) in presence of excess liposomes 1.2 mg lipid/ml) was at most 5%. The “% Cytostasis” value ([4]; acetyl-LDL 50 μg protein/ml (MTP-PE 5.0 μg/ml in complex, 0.0 alone), 24 hours) was under 5%, the “% Cytostasis (Complex + Excess Liposomes)” value ([4]; acetyl-LDL 50 μg protein/ml (MTP-PE 5.0 or 0.0 μg/ml) in presence of excess liposomes 1.2 mg lipid/ml) was at most 5% and the “% Cytostasis” value ([4]; acetyl-LDL 100 μg protein/ml (MTP-PE 9.9 μg/ml in complex, 0.0 for acetyl-LDL alone), macrophages treated 24 hours) was under 5%. For the same substance, the “% Cytostasis (Complex + Excess Liposomes)” value ([4]; acetyl-LDL 100 μg protein/ml (MTP-PE 9.9 or 0.0 μg/ml) in presence of excess liposomes 1.2 mg lipid/ml) was at most 5%, the “Percent Cytotoxicity” value ([5]; effector to target cell ratio 1:1, same amounts per well) was 0.5 ± 1% and the “Percent Cytotoxicity” value ([5]; effector to target cell ratio 5:1, same amounts per well) was 4.5 ± 4%. For the same substance, the “Percent Cytotoxicity” value ([5]; effector to target cell ratio 10:1, same amounts per well) was 4 ± 2%, the “Percent Cytotoxicity” value ([5]; effector to target cell ratio 20:1, same amounts per well) was 6 ± 2% and the “Percent Cytotoxicity” value ([5]; effector to target cell ratio 40:1, per well: complex 18.0 ug protein containing 3.6 ug MTP-PE, free MTP-PE 3.6 ug, acetyl-LDL 18.0 ug protein) was 3 ± 3%.
With “LDL: native unmodified human plasma low density lipoprotein” the “competition with uptake of DiI-labeled acetyl-LDL:MTP-PE complex” value [3] was “negligible to moderate competition”.
